The source of these data is patent US9630962B2, “4-amino-6-(2,6-dichlorophenyl)-2-(phenylamino)-pyrido[2,3-d]pyrimidin-7(8H)-one derivatives, synthesis and uses thereof” (INSTITUT QUÍMIC DE SARRIÁ, CETS FUNDACIÓ PRIVADA, priority 2013, dated 2017).

In test [1] the target is T1, SYK aa1-635 (Homo sapiens, UniProt P43405).
T1 construct: BTK, LYN, SYK aa1-635; purchased ProQinase; host or cells: Sf9 insect cells or E. coli (not specified per kinase)
Nature of the test: Radiometric protein kinase assay (33PanQinase Activity Assay), residual activity. In kind it is biochemical. The following applies: 10 μM (1×10^−05 M) test compound, singlicate. The procedure:
The kinase inhibition profile of compounds of formula (I) was evaluated at Proqinase (http://www.proqinase.conn) by measuring residual activity values at a concentration of 10 μM of the test compound in singlicate in front of the following kinases: BTK, LYN, SYK aa1-635 using the following protocol:
The compounds were dissolved to 1×10^−03 M stock solutions in 100% DMSO. Subsequently, 100 μl of each stock solution were transferred into wells A3-F12 of a microtiter plate (“master plate”). Wells A1-F2 were filled with 100 μl 100% DMSO as controls. 5×10 μl of the master plate were aliquoted into 5 copy plates, which were stored at −20° Celsius until use. For the testing of each group of up to 8 kinases, one copy plate was used.
In the process, 90 μl H2O were added to each well of a copy plate. To minimize precipitation, the H2O was added to each well only a few minutes before the transfer of the compound solutions into the assay plates. The plate was shaken thoroughly, resulting in a “compound dilution plate” with a compound concentration of 1×10^−04 M/10% DMSO. This plate was used for the transfer of 5 μl compound solution into the assay plates. The final volume of the assay was 50 μl. All compounds were tested at 1×10^−05 M in singlicate. The final DMSO concentration in the reaction cocktails was 1% in all cases. The compound dilution plates were disposed at the end of each working day.
A radiometric protein kinase assay (^33PanQinase® Activity Assay) was used for measuring the kinase activity of the corresponding protein kinases. All kinase assays were performed in 96-well FlashPlates™ from Perkin Elmer (Boston, Mass., USA) in a 50 μl reaction volume. The reaction cocktail was pipetted in 4 steps in the following order: • 10 μl of non-radioactive ATP solution (in H2O) • 25 μl of assay buffer/[γ-33P]-ATP mixture • 5 μl of test sample in 10% DMSO • 10 μl of enzyme/substrate mixture
The protein kinase reaction cocktails were incubated at 30° C. for 60 minutes. The reaction was stopped with 50 μl of 2% (v/v) H3PO4, plates were aspirated and washed two times with 200 μl 0.9% (w/v) NaCl. All assays were performed with a BeckmanCoulter Biomek 2000/SL robotic system. Incorporation of ^33Pi (counting of “cpm”) was determined with a microplate scintillation counter (Microbeta, Wallac).
All protein kinases provided by ProQinase were expressed in Sf9 insect cells or in E. coli as recombinant GST-fusion proteins or His-tagged proteins. All kinases were produced from human cDNAs and purified by either GSH-affinity chromatography or immobilized metal. Affinity tags were removed from a number of kinases during purification. The purity of the protein kinases was examined by SDS-PAGE/Coomassie staining, the identity was checked by mass spectroscopy.
For each kinase, the median value of the cpm of six wells of column 1 of each assay plate was defined as “low control” (n=6). This value reflects unspecific binding of radioactivity to the plate in the absence of a protein kinase but in the presence of the substrate. Additionally, for each kinase the median value of the cpm of six wells of column 2 of each assay plate was taken as the “high control”, i.e. full activity in the absence of any inhibitor (n=6). The difference between high and low control of each enzyme was taken as 100% activity.
As part of the data evaluation the low control of each kinase was subtracted from the high control value as well as from their corresponding “compound values”. The residual activity (in %) for each compound well was calculated by using the following formula: Res. Activity (%)=100×[(signal of compound −low control)/(high control −low control)] Results
The singlicate residual activity values of the tested compounds at one concentration (1×10^−05 M) in singlicate in the required protein kinase assays are given.

Test [2] has as its system phospho-Lyn. Briefly: Western blot of BCR kinase phosphorylation in NHL cell lines. The class given is cell-based. The following applies: 6 h, UPN-1, JVM-13, DoHH-2, SUDHL-16 cells. The procedure:
(§1) Analysis of B-Cell Receptor (BCR) activation signaling molecules by Western Blot and flow cytometry. Total protein extracts in 1% Triton X-100 plus protease and phosphatase inhibitors were made from cells treated with a range of doses of the indicated compound (0.1, 1, 5 and 10 μM). These cells lysates were resolved by standard SDS-PAGE (sodium dodecyl sulfate polyacrylamide gel electrophoresis), transferred to PVDF (polyvinylidene difluoride) membranes and incubated overnight with the indicated primary antibodies (pSyk, pLyn and β-actin) followed by species-matched secondary horseradish peroxidase (HRP)-labelled antibodies. Chemiluminiscence was developed adding ECL (enhanced chemilumiscence) reagent and signal was captured in a LAS4000 device using Image Gauge software (Fujifilm). Intracellular amount of PhosphoY223-Btk was determined by inmunostaining with an anti-phosphoY223-Btk-PE antibody (clone N35-86), using IgG1 K isotype-PE as negative control (BD Biosciences). After the different treatments, cells (5×10^5) were fixed in 4% paraformaldehyde in PBS (15 min, 4° C.), permeabilized with cold methanol (10 min, −20° C.), washed with PBS containing 1% BSA and incubated with the indicated antibodies at room temperature for 15 min. Finally, cells were washed with PBS containing 1% BSA, resuspended in 500 μl PBS and analyzed by flow cytometry in an Attune acoustic focusing cytometer (Life Technologies). The Mean Fluorescence Ratio (MFIR) between the mean fluorescence intensity of Btk-PE signal and isotypic control was then calculated for both untreated and treated conditions. These MFIR were then referred to the untreated control (r).
(§2) To further assess the inhibitory effect of 4-amino-6-(2,6-dichlorophenyl)-8-methyl-2-(4-(4-methylpiperazin-1-yl)phenylamino)pyrido[2,3-d]pyrimidin-7(8H)-one (Example 5) on the activity of BCR kinases, a set of 4 cell lines representative of each entity was exposed for 6 h to increased doses of 4-amino-6-(2,6-dichlorophenyl)-8-methyl-2-(4-(4-methylpiperazin-1-yl)phenylamino)pyrido[2,3-d]pyrimidin-7(8H)-one (Example 5) and cell contents in phospho-Syk and phospho-Lyn were analysed by SDS-PAGE and western blotting with specific antibodies, using β-actin as a loading control. […] For the evaluation of phospho-Btk protein levels, cell lines were treated as above with a 5 μM dose of the compound and stained with an anti-phospho-Btk phycoerythin(PE)-labeled antibody followed by flow cytometry analysis.
On the technique in general: In western blotting, separated proteins are transferred to a membrane and probed.

Test [3] relates to phospho-Syk. The test is described as above. In kind it is cell-based. The following applies: 6 h, UPN-1, JVM-13, DoHH-2, SUDHL-16 cells. The procedure: as §1, §2
Test [4] relates to PhosphoY223-Btk. Briefly: Flow cytometry of intracellular PhosphoY223-Btk. The following applies: 5 μM, 6 h. The class given is cell-based. As for the experimental part:
as §1, with “After the different treatments, cells (5×10^5) were fixed in 4% paraformaldehyde in PBS (15 min, 4° C.), permeabilized with cold methanol (10 min, −20° C.), washed with PBS containing 1% BSA and incubated with the indicated antibodies at room temperature for 15 min.” left out, “These MFIR were then referred to the untreated control (r).” left out
To further assess the inhibitory effect of 4-amino-6-(2,6-dichlorophenyl)-8-methyl-2-(4-(4-methylpiperazin-1-yl)phenylamino)pyrido[2,3-d]pyrimidin-7(8H)-one (Example 5) on the activity of BCR kinases, a set of 4 cell lines representative of each entity was exposed for 6 h to increased doses of 4-amino-6-(2,6-dichlorophenyl)-8-methyl-2-(4-(4-methylpiperazin-1-yl)phenylamino)pyrido[2,3-d]pyrimidin-7(8H)-one (Example 5) and cell contents in phospho-Syk and phospho-Lyn were analysed by SDS-PAGE and western blotting with specific antibodies, using β-actin as a loading control. […]
(In general: Flow cytometry measures light scatter and fluorescence of single cells or particles in a stream.)

Broadly, the remaining activity is the activity still measured, relative to the control. A lower remaining activity goes with little activity left.

With `CN1CCN(c2ccc(Nc3nc(N)c4cc(-c5c(Cl)cccc5Cl)c(=O)n(C)c4n3)cc2)CC1` [Example 5, 4-amino-6-(2,6-dichlorophenyl)-8-methyl-2-(4-(4-methylpiperazin-1-yl)phenylamino)pyrido[2,3-d]pyrimidin-7(8H)-one], the remaining activity at 10 µM in test [1] is 9%. Further, the Lyn phosphorylation inhibition result is “already detectable” in test [2] (1 μM), “significantly enhanced” in test [2] (5 μM) and “almost completely achieved” in test [2] (10 μM). The Syk phosphorylation inhibition entry in test [3] (1 μM) is given as “already detectable”; in test [3] (5 μM), “significantly enhanced”; in test [3] (10 μM), “almost completely achieved”. Besides, the “downregulation of phospho-Btk (decrease of mean fluorescence intensity ratio)” value in test [4] (DoHH-2 cells) was 60%; in test [4] (JVM-13 cells) it was 60%; in test [4] (UPN-1 cells) it was 30%.
